These results are taken from ChEMBL document CHEMBL6092155, “211At radiolabeled APBA-FAPI for enhanced targeted-alpha therapy of glioma” (Eur J Med Chem, 2024).

Each structure is given as a SMILES string. Active and inactive are the calls of the source. The calls are words filed in the database; no cut-off is given here.

A short description of series [1]: Drug penetration in human FAPalpha-positive U-87 MG cells assessed as blood brain barrier translocation rate incubated upto 4 hrs by invitro BBB assay (reference value: 0.54+/-0.12%). It is filed as ADME, cell-based. As to conditions: u-87mg atcc.
The nature of series [2]: Drug uptake in human FAPalpha-negative MCF7 cells incubated for 120 min by gamma counter analysis relative to control. It is filed as ADME, cell-based. As to conditions: mcf7, 2 h.
Series [3] is described as follows: Octanol/[…] partition coefficient, log P of the compound. It is filed as physicochemical.
Series [4] in a line: Stability of the compound in fetal bovine serum incubated for 3 to 24 hrs by RCP analysis (Del). It is filed as ADME, cell-free. As to conditions: cattle, time 3-24 hrs.
The nature of series [5]: Stability of compound in PBS incubated for 3 to 24 hrs assessed as radiochemical purity (RCP) relative to control. It is filed as physicochemical. As to conditions: buffer; time 3-24 hrs.
For series [6], the target named is T1, Albumin (Homo sapiens, UniProt P02768). Nature of the series: Binding affinity to human serum albumin assessed as decrease in HAS binding incubated for 30 mins under ibuprofen relative to control. Also noted: scale not given: the % may be the effect or the level left. It is filed as ADME. As to conditions: isolated protein, 0.5 h.
T1 sequence (P02768 whole entry): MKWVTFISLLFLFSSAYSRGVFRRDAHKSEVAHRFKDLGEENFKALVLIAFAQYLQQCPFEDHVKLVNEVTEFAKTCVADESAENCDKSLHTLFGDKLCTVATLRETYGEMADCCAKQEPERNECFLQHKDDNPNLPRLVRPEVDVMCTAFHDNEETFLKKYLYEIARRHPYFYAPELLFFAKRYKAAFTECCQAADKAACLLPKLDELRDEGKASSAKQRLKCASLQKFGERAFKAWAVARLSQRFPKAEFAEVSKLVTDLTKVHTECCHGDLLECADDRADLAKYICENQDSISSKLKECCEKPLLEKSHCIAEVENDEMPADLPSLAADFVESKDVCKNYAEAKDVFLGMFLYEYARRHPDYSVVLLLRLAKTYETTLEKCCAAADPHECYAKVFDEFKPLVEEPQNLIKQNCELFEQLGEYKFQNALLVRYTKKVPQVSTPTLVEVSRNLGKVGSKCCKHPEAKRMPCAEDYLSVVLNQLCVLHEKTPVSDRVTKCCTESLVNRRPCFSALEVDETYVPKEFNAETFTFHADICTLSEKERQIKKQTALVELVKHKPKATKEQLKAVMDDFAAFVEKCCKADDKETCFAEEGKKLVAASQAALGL
Series [7] can be described thus: Toxicity in female BALB/c nude mouse assessed as red blood cell count at 0.37 to 1.11 MBq, iv measured after 7 days of postinjection by blood analysis. As to conditions: in vivo, 168 h, dose 0.37-1.11 MBq, time 7 day. It is filed as organism-based.
Series [8] deals with U-87 MG. The experiment in a line: Antitumor activity against human U-87 MG cells xenografted in female BALB/c nude mouse model assessed as tumor growth inhibition at 0.74 MBq, iv measured after 8 days postinjection relative to control. It is filed as functional, U-87MG ATCC. As to conditions: time 8 day.
Series [9] deals with U-87 MG. The experiment in a line: Antitumor activity against human U-87 MG cells xenografted in female BALB/c nude mouse model assessed as tumor growth inhibition at 0.37 MBq, iv measured after 36 days postinjection relative to control. It is filed as functional, U-87MG ATCC. As to conditions: time 36 day.
Series [10] relates to U-87 MG. The experiment in a line: Antitumor activity against human U-87 MG cells xenografted in female BALB/c nude mouse model assessed as tumor growth inhibition at 1.11 MBq, iv measured after 8 days postinjection relative to control. It is filed as functional, U-87MG ATCC. As to conditions: time 8 day. (In general: A xenograft is tissue or cells of one species grown in another, often human tumour cells in immunodeficient mice.)

Series [11] can be described thus: Toxicity in female BALB/c nude mouse assessed as decrease platelet count at 0.37 to 1.11 MBq, iv measured after 7 days of postinjection by blood analysis. As to conditions: in vivo, 168 h, dose 0.37-1.11 MBq, time 7 day. It is filed as organism-based.
Series [12] deals with T1, Albumin. Nature of the series: Binding affinity to human serum albumin assessed as decrease in HAS binding incubated for 30 mins under warfarin blocking relative to control. As to conditions: isolated protein, 0.5 h. It is filed as ADME. Also noted: scale not given: the % may be the effect or the level left.
Series [13] deals with U-87 MG. The experiment in a line: Antiproliferative activity against human U-87 MG cells assessed as inhibition of cell viability at 148 KBq incubated for 12 hrs followed by replacement with fresh media and measured after 24 hrs by CCK-8 method relative to control. It is filed as functional, U-87MG ATCC.
Series [14] in a line: Toxicity in female BALB/c nude mouse model assessed as body weight loss measured at 0.74 to 1.11 MBq, iv after 40 days of postinjection. It is filed as organism-based. As to conditions: in vivo, 960 h, dose 0.74-1.11 MBq, time 40 day.
The nature of series [15]: Stability of the compound in fetal bovine serum assessed as radiochemical purity (RCP) incubated for 3 to 24 hrs relative to control. As to conditions: cattle, time 3-24 hrs. It is filed as ADME, cell-free, Bos taurus.
Series [16] is described as follows: Toxicity in female BALB/c nude mouse model assessed as animal death at 1.11 MBq, iv measured after 10 days. It is filed as organism-based. As to conditions: in vivo, 240 h, time 10 day.
Series [17] relates to U-87 MG. The experiment in a line: Antitumor activity against human U-87 MG cells xenografted in female BALB/c nude mouse model assessed as tumor growth inhibition at 0.74 MBq, iv measured after 36 days postinjection relative to control. It is filed as functional, U-87MG ATCC. As to conditions: time 36 day.
A short description of series [18]: Toxicity in female BALB/c nude mouse model assessed as animal death at 0.74 MBq, iv measured after 38 days. It is filed as organism-based. As to conditions: in vivo, 912 h, time 38 day.
Series [19] can be described thus: Toxicity in female BALB/c nude mouse assessed as effect on stomach at 0.37 to 1.11 MBq, iv measured after 7 days of postinjection by H and E staining based analysis. It is filed as organism-based. As to conditions: in vivo, 168 h, dose 0.37-1.11 MBq, time 7 day.
The nature of series [20]: Toxicity in female BALB/c nude mouse assessed as hemoglobin indices at 0.37 to 1.11 MBq, iv measured after 7 days of postinjection by blood analysis. As to conditions: in vivo, 168 h, dose 0.37-1.11 MBq, time 7 day. It is filed as organism-based.
Series [21] is described as follows: Toxicity in female BALB/c nude mouse assessed as effect on lung at 0.37 to 1.11 MBq, iv measured after 7 days of postinjection by H and E staining based analysis. As to conditions: in vivo, 168 h, dose 0.37-1.11 MBq, time 7 day. It is filed as organism-based.
Series [22] in a line: Toxicity in female BALB/c nude mouse assessed as effect on liver at 0.37 to 1.11 MBq, iv measured after 7 days of postinjection by H and E staining based analysis. It is filed as organism-based. As to conditions: in vivo, 168 h, dose 0.37-1.11 MBq, time 7 day.
Series [23] is described as follows: Drug uptake in human U-87 MG cells incubated for 120 min under FAPI-04 monomer blocking condition by gamma counter analysis relative to control. It is filed as ADME, cell-based. As to conditions: u-87mg atcc, 2 h.
For series [24], the target named is T1, Albumin. The experiment in a line: Binding affinity to human serum albumin assessed as binding rate incubated for 30 min relative to control. As to conditions: isolated protein, 0.5 h. It is filed as ADME.
A short description of series [25]: Drug uptake in human FAPalpha-positive U-87 MG cells incubated for 30 to 120 min by gamma counter analysis relative to control. It is filed as ADME, cell-based. As to conditions: u-87mg atcc, time 30-120 min.
In series [26] the test system is U-87 MG. The experiment in a line: Antitumor activity against human U-87 MG cells xenografted in female BALB/c nude mouse model assessed as tumor growth inhibition at 0.37 MBq, iv measured after 8 days postinjection relative to control. It is filed as functional, U-87MG ATCC. As to conditions: time 8 day.
A short description of series [27]: Toxicity in female BALB/c nude mouse assessed as thyroid gland damage at 1.11 MBq, iv measured after 7 days of postinjection by H and E staining based analysis. As to conditions: in vivo, 168 h, time 7 day. It is filed as organism-based.
The nature of series [28]: Toxicity in female BALB/c nude mouse assessed as effect on kidney at 0.37 to 1.11 MBq, iv measured after 7 days of postinjection by H and E staining based analysis. It is filed as organism-based. As to conditions: in vivo, 168 h, dose 0.37-1.11 MBq, time 7 day.
For series [29], the system named is U-87 MG. The experiment in a line: Antiproliferative activity against human U-87 MG cells assessed as inhibition of cell viability at 18.5 KBq incubated for 12 hrs followed by replacement with fresh media and measured after 24 hrs by CCK-8 method relative to control. It is filed as functional, U-87MG ATCC.
Series [30] relates to U-87 MG. Nature of the series: Antitumor activity against human U-87 MG cells xenografted in female BALB/c nude mouse model assessed as increase in survival time at 0.74 to 1.11 MBq, iv measured upto 70 days postinjection. It is filed as functional, organism-based. As to conditions: U-87MG ATCC, dose 0.74-1.11 MBq, time <= 70.0 day, tested as the 211At-labelled form.
Series [31] deals with U-87 MG. Nature of the series: Antitumor activity against human U-87 MG cells assessed as induction of apoptosis in tumor tissue at 1.11 MBq, iv by TUNEL analysis. It is filed as functional, organism-based. As to conditions: U-87MG ATCC, tested as the 211At-labelled form.
Series [32] has as its system U-87 MG. Nature of the series: Antitumor activity against human U-87 MG cells assessed as inhibition of cell proliferation by measuring reduction in number of Ki67 positive cells at 1.11 MBq, iv administered for 7 days by immunohistochemical analysis. It is filed as functional, organism-based. As to conditions: U-87MG ATCC, time 7.0 day, tested as the 211At-labelled form.

The nature of series [33]: Drug uptake in mouse FAPalpha-negative 4T1 cells incubated for 120 min by gamma counter analysis relative to control. It is filed as ADME, cell-based. As to conditions: 4t1, 2 h.
Series [34] in a line: Drug uptake in human FAPalpha-positive U-87 MG cells incubated for 120 min by gamma counter analysis relative to control. It is filed as ADME, cell-based. As to conditions: u-87mg atcc, 2 h.

With `N#C[C@@H]1CC(F)(F)CN1C(=O)CNC(=O)c1ccnc2ccc(OCCCN3CCN(C(=O)CCCc4ccc([131I])cc4)CC3)cc12`, the values for the Drug uptake in [1] and in [2] were 3.71% and 7.77%, respectively. Besides, in series [3], the logP (usually the decadic logarithm of the partition coefficient of the neutral form, usually between octanol and water) was 2.43.
The compound `N#C[C@@H]1CC(F)(F)CN1C(=O)CNC(=O)c1ccnc2ccc(OCCCN3CCN(C(=O)c4ccc([211At])cc4)CC3)cc12` had a logP in series [3] of 1.96. This compound also returned a Stability in series [4] of 71%.
On to `N#C[C@@H]1CC(F)(F)CN1C(=O)CNC(=O)c1ccnc2ccc(OCCCN3CCN(C(=O)CCCc4ccc([211At])cc4)CC3)cc12`, for which the figures for the Stability in series [5] and in series [15] were 88.17% and 91.4%, respectively. For the same compound, the Activity at Albumin [6] is 4.01%; in series [7], “Non-toxic”; in series [11], “Toxic”; at Albumin [12], 3.54%; in series [14], “Non-toxic”; in series [16], “Toxic”. Further, the Activity result in series [18] is given as “Toxic”; in series [19], “Non-toxic”; in series [20], “Non-toxic”; in [21], “Non-toxic”; in [22], “Non-toxic”; at Albumin [24], 7.63%. Further, the Activity result is “Toxic” in series [27] and “Non-toxic” in series [28]. Also, the Drug uptake is reported as 2.06% in series [1], 12.86% in [23] and 40.8% in series [25]. In addition, the TGI (usually how far tumour growth fell short of that in controls) with U-87 MG [8] is 92.28%; with U-87 MG [9], 10.46%; with U-87 MG [10], 94.99%; with U-87 MG [17], 4.2%; in the series with U-87 MG [26], 84.98%. In addition, the entries for the “inhibition (INH)” value with U-87 MG [13] and with U-87 MG [29] were 48.58% and 70.95%, respectively. The compound also had a logP in [3] of 2.37.
In the case of `N#C[C@@H]1CC(F)(F)CN1C(=O)CNC(=O)c1ccnc2ccc(OCCCN3CCN(C(=O)CCCc4ccc([At])cc4)CC3)cc12`, the outcome in the series on U-87 MG [30], in the series on U-87 MG [31] and with U-87 MG [32] was Active.
Take `N#C[C@@H]1CC(F)(F)CN1C(=O)CNC(=O)c1ccnc2ccc(OCCCN3CCN(C(=O)c4ccc([131I])cc4)CC3)cc12`: the logP in [3] was found to be 2.12.
In the case of `[211AtH]`, the values for the Drug uptake in series [33] and in series [34] were 11.22% and 2.75%, respectively.
